Here are results for 17 molecules from ChEMBL document CHEMBL5316297, “Mechanistic Insight of Synthesized 1,4-Dihydropyridines as an Antidiabetic Sword against Reactive Oxygen Species” (J Med Chem, 2023).

A short description of data set [1]: Toxicity in high fat diet-STZ-induced diabetic Swiss albino mouse model assessed as changes in body weight at 0.2 mmol/Kg/day, po administered for 14 days (reference value: 26.6 to 27.8 g). The data set is classed as organism-based. The conditions noted are these: in vivo, 336 h, time 14 day.
Data set [2] has as its system Mus musculus. The experiment in a line: Antidiabetic activity against high fat diet-STZ-induced diabetic Swiss albino mouse model assessed as reduction in blood glucose level at 0.2 mmol/Kg/day, po administered for 14 days. The data set is classed as functional. The conditions noted are these: time 14 day.
For data set [3], the system named is Mus musculus. As to the kind of experiment: Antidiabetic activity against high fat diet-STZ-induced diabetic Swiss albino mouse model assessed as reduction in blood glucose level at 0.2 mmol/Kg/day, po administered for 14 days relative to control. The format is functional. On the set-up: scale not given: the % may be the effect or the level left. The conditions noted are these: time 14 day.

Data set [4] has as its system Mus musculus. As to the kind of experiment: Antidiabetic activity against high fat diet-STZ-induced diabetic Swiss albino mouse model assessed as reduction in blood glucose level at 0.2 mmol/Kg/day, po administered for 14 days relative to glimepiride. As to conditions: time 14 day. The data set is classed as functional. On the set-up: scale not given: the % may be the effect or the level left.

Data set [5] in a line: Acute toxicity in Swiss albino mouse assessed as effect on mortality up to 2000 mg/kg, po administered for 14 days. The data set is classed as organism-based. The conditions noted are these: in vivo, 336 h, time 14 day.
The nature of data set [6]: Acute toxicity in Swiss albino mouse assessed as effect on behavioural change up to 2000 mg/kg, po administered for 14 days. The format is organism-based. As to conditions: in vivo, 336 h, time 14 day.
The nature of data set [7]: Acute toxicity in Swiss albino mouse assessed as effect on motor alterations up to 2000 mg/kg, po administered for 14 days. The data set is classed as organism-based. The conditions noted are these: in vivo, 336 h, time 14 day.
The nature of data set [8]: Acute toxicity in Swiss albino mouse assessed as toxic symptoms up to 2000 mg/kg, po administered for 14 days. As to conditions: in vivo, 336 h, time 14 day. The data set is classed as organism-based.

Consider `CCOC(=O)C1=C(C)NC(C)=C(C(=O)OC)C1c1cccc2c1OCO2` (centres undefined) [OXODIPINE], for which the Activity in data set [1] is 27.2 g; in data set [2], 108.4 mg/dL; in data set [3], 63.65%; in data set [4], 190%; in data set [5] it was “Non-Toxic”; in data set [6] it was “Non-Toxic”. For the same molecule, the Activity result in data set [7] and in data set [8] was “Non-Toxic” throughout.

With `COC(=O)C1=C(C)NC(C)=C(C(=O)OC(C)(C)C)C1c1ccc2c(c1)OCO2` (centres undefined), the Activity was 29.1 g in data set [1]; 297.04 mg/dL in data set [2]; 0.39% in data set [3]; below 1% in data set [4]; “Non-Toxic” in data set [5]; “Non-Toxic” in data set [6]. Moreover, the Activity entry in data set [7] and in data set [8] was “Non-Toxic” each time.

With `CCOC(=O)C1=C(C)NC(C)=C(C(=O)OCC)C1c1ccc2c(c1)Cc1ccccc1-2`, the Activity is 29.3 g in data set [1]; 296.94 mg/dL in data set [2]; 0.42% in data set [3]; 1% in data set [4]; “Non-Toxic” in data set [5]; “Non-Toxic” in data set [6]. In addition, the Activity entry in data set [7] and in data set [8] was “Non-Toxic” in each case.

As to `CCOC(=O)C1=C(C)NC(C)=C(C(=O)OCC)C1c1ccc2c(c1)OCCO2`, the Activity is 26.8 g in data set [1]; 150.35 mg/dL in data set [2]; 49.58% in data set [3]; 148% in data set [4]; “Non-Toxic” in data set [5]; “Non-Toxic” in data set [6]. In addition, the Activity result in data set [7] and in data set [8] was “Non-Toxic” each time.

Consider `CC1=C(C(=O)OC(C)C)C(c2ccc3c(c2)OCCO3)C(C(=O)OC(C)C)=C(C)N1`, for which the Activity was 28.8 g in data set [1]; 297.19 mg/dL in data set [2]; 0.34% in data set [3]; 1% in data set [4]; “Non-Toxic” in data set [5]; “Non-Toxic” in data set [6]. Besides, the Activity entry in data set [7] and in data set [8] was “Non-Toxic” each time.

Regarding `CCOC(=O)C1=C(C)NC(C)=C(C(=O)OC(C)(C)C)C1c1ccc2c(c1)OCO2` (centres undefined), the Activity is 27.9 g in data set [1]; 297.9 mg/dL in data set [2]; 0.1% in data set [3]; below 1% in data set [4]; “Non-Toxic” in data set [5]; “Non-Toxic” in data set [6]. Besides, the Activity entry in data set [7] and in data set [8] was “Non-Toxic” in each case.

With `CCOC(=O)C1=C(C)NC(C)=C(C(=O)OC)C1c1ccc2c(c1)OCCO2` (centres undefined), the Activity in data set [1] was 27.5 g; in data set [2], 147.34 mg/dL; in data set [3], 50.49%; in data set [4] it was 151%; in data set [5], “Non-Toxic”; in data set [6], “Non-Toxic”. Moreover, the Activity entry in data set [7] and in data set [8] was “Non-Toxic” in each case.

`COCCOC(=O)C1=C(C)NC(C)=C(C(=O)OCCOC)C1c1cccc2c1OCO2`: the Activity was 27 g in data set [1]; 208.41 mg/dL in data set [2]; 30.11% in data set [3]; 90% in data set [4]; “Non-Toxic” in data set [5]; “Non-Toxic” in data set [6]. Further, the Activity result in data set [7] and in data set [8] was “Non-Toxic” throughout.

For `COC(=O)C1=C(C)NC(C)=C(C(=O)OC(C)(C)C)C1c1cccc2c1OCO2` (centres undefined), the Activity in data set [1] was 28.7 g; in data set [2], 297.34 mg/dL; in data set [3], 0.29%; in data set [4], below 1%; in data set [5], “Non-Toxic”; in data set [6] it was “Non-Toxic”. In addition, the Activity result in data set [7] and in data set [8] was “Non-Toxic” in each case.

As for `CC1=C(C(=O)OCc2ccccc2)C(c2cccc3c2OCO3)C(C(=O)OCc2ccccc2)=C(C)N1`, the Activity in data set [1] is 27.3 g; in data set [2], 169.4 mg/dL; in data set [3], 43.66%; in data set [4], 129%; in data set [5], “Non-Toxic”; in data set [6] it was “Non-Toxic”. Further, the Activity result in data set [7] and in data set [8] was “Non-Toxic” in each case.

As to `COC(=O)C1=C(C)NC(C)=C(C(=O)OC(C)C)C1c1cccc2c1OCO2` (centres undefined), the Activity in data set [1] is 28.9 g; in data set [2] it was 238.23 mg/dL; in data set [3], 20.11%; in data set [4], 60%; in data set [5], “Non-Toxic”; in data set [6], “Non-Toxic”. In addition, the Activity entry in data set [7] and in data set [8] was “Non-Toxic” each time.

In the case of `CC1=C(C(=O)OC(C)(C)C)C(c2cccc3c2OCO3)C(C(=O)OC(C)(C)C)=C(C)N1`, the Activity in data set [1] is 29.3 g; in data set [2] it was 296.14 mg/dL; in data set [3] it was 0.69%; in data set [4] it was below 1%; in data set [5], “Non-Toxic”; in data set [6], “Non-Toxic”. In addition, the Activity entry in data set [7] and in data set [8] was “Non-Toxic” throughout.

Take `COCCOC(=O)C1=C(C)NC(C)=C(C(=O)OC)C1c1cccc2c1OCO2` (centres undefined): the Activity in data set [1] was 28.3 g; in data set [2], 258.24 mg/dL; in data set [3], 13.4%; in data set [4], 40%; in data set [5], “Non-Toxic”; in data set [6], “Non-Toxic”. The Activity result in data set [7] and in data set [8] was “Non-Toxic” each time.

As to `CCOC(=O)C1=C(C)NC(C)=C(C(=O)OC(C)C)C1c1ccc2c(c1)OCO2` (centres undefined), the Activity in data set [1] is 29.2 g; in data set [2], 297.87 mg/dL; in data set [3] it was 0.11%; in data set [4] it was below 1%; in data set [5], “Non-Toxic”; in data set [6] it was “Non-Toxic”. Also, the Activity result in data set [7] and in data set [8] was “Non-Toxic” each time.

Turning to `CC1=C(C(=O)OC(C)(C)C)C(c2ccc3c(c2)OCO3)C(C(=O)OC(C)(C)C)=C(C)N1`, the Activity in data set [1] is 26.9 g; in data set [2], 296.38 mg/dL; in data set [3], 0.61%; in data set [4], below 1%.

Turning to `CC1=C(C(=O)OCc2ccccc2)C(c2ccc3c(c2)OCO3)C(C(=O)OCc2ccccc2)=C(C)N1`, the Activity in data set [1] worked out at 27 g; in data set [2] it was 185.3 mg/dL; in data set [3], 37.86%; in data set [4], 113%.

`COCCOC(=O)C1=C(C)NC(C)=C(C(=O)OCCOC)C1c1ccc2c(c1)OCO2`: the Activity in data set [1] stood at 27.4 g; in data set [2] it was 208.41 mg/dL; in data set [3], 30.11%; in data set [4] it was 90%.
